This passage reports EC50 results from patent US9186361B2, “Compounds and compositions for the treatment of parasitic diseases” (Novartis AG, priority 2013, dated 2015).

Common to all, as to assay type: cell-based
Test [1] deals with Trypanosoma brucei Lister 427 strain. Nature of the test: Assay for proliferation of kinetoplastid parasite Trypanosoma brucei (Cell Titer Glo). To be noted: bloodstream form, 48 hours, read-out: T. brucei EC50. An excerpt: The proliferation is quantified by the addition of Cell Titer Glo (Promega®) a luminescent cell viability assay that measures the number of viable cells in culture based on the quantification of cellular ATP amount, which is an indicator of metabolically active cells. The following assay illustrates the invention without in any way limiting the scope of the invention. This parasite proliferation assay measures the increase in parasite growth using an assay that measures ATP activity, Cell Titer Glo®.
Trypanosoma brucei Lister 427 strain is grown in HMI-9 Trypanosome media for T. brucei bloodstream form. 30 μl of HMI-9 media is dispensed into 384 well assay plates. 200 nL of compounds of the invention (in DMSO), including anti-trypanosome controls (Pentamidine and suramin), are then transferred into the assay plates, as well as DMSO alone to serve as a negative control for inhibition. Then 25 μl of a suspension of T. brucei culture in HMI-9 media is dispensed into the assay plates. The final concentration of parasites in culture corresponds to 1.7% of 0.5 uM ATP activity with Cell Titer Glo® in HMI-9 media. The plates are placed in a 37° C. incubator for 48 hours in an atmospheric environment containing 5% CO2. 40 μl of Cell Titer Glo® is dispensed into the plates. The plates are then read for luminescence. The percentage inhibition of 50%, EC50, is calculated for each compound.

Test [2] concerns Leishmania donovani axenic amastigote parasites. In words: Assay for Leishmania proliferation in vitro (axenic amastigotes, Cell TiterGlo). As to conditions: 48 h, 2 day incubation, read-out: L. donovani amastigotes EC50. How it is done:
Leishmania donovani axenic amastigote parasites are grown at 37° C., 5% CO2 in media made of RPMI 1640, 4 mM L-glutamine, 20% heat inactivated FBS, 100 units/ml of penicillin and 100 μg/ml of streptomycin, 23 μM Folic Acid, 100 μM Adenosine, 22 mM D-glucose, 25 mM MES. The pH of media is adjusted to 5.5 at 37° C. using HCl. 20 μL of media is first dispensed into 384 well plates and […] of the compounds of invention in DMSO are added to the plate wells. At the same time control compounds and DMSO are added to plates to serve as the positive and negative controls, respectively. 40 μL of parasite culture (9600 parasites) are then added to the plate wells. The plates are then placed into incubators. After 2 day incubation, 20 μL of Cell TiterGlo (Promega) is added to the plate wells. The luminescence signal of each well is measured using the Envision reader (Perkin Elmer). The percentage inhibition of 50%, EC50, is calculated for each of the compounds.

Test [3] deals with Trypanosoma cruzi amastigotes cultured in 3T3 fibroblast cells. In words: Assay for proliferation of kinetoplastid parasite Trypanosoma cruzi (beta-galactosidase/CPRG readout). To be noted: NIH3T3, 144 h, Tulahuen strain in 3T3 cells, 6 day incubation, read-out: T cruzi EC50. An excerpt: Compounds of the invention can be assayed to measure their capacity to inhibit proliferation of kinetoplastid parasite Trypanosoma cruzi. The screening procedure is for identifying compounds with inhibitor activity against Trypanosoma cruzi amastigotes cultured in 3T3 fibroblast cells. The assay is done using the mammalian stage (amastigotes) of T. cruzi that replicates in the intracellular space of host cells. The host cells are initially infected with the culture-derived trypomastigotes that rapidly invade and then divide as amastigotes. The protocol uses the Tulahuen strain of T. cruzi that has been engineered to express the E. coli beta-galactosidase gene (Lac-Z) (Antimicr. Agents Chemoth. 40:2592, 1996). This allows for a colorimetric readout by using the substrate CPRG and an absorbance plate reader.
3T3 fibroblast cells are re-suspended in RPMI-1640 medium without phenol red medium supplemented with 10% FBS (heat inactivated), 100 μg/ml penicillin, and 100 μg/ml streptomycin. Forty μL of suspension (1,000 cells) is dispensed into 384-well plates and incubated overnight at 37° C. temperature and in atmosphere containing 5% CO2. The following day, 100 nL of compounds of the invention in DMSO are added to plate wells containing 3T3 cells. At the same time control compounds (benznidazole and nifurtimox) and DMSO are added to plates to serve as the positive and negative controls, respectively. After that, 10 μL of media containing 10,000 T. cruzi trypomastigotes are added to each plate well and plates are placed back into incubators. After 6 day incubation, 10 μL of reagent solution (0.6 mM CPRG, 0.6% NP-40 in PBS) is added to plates and incubated at room temperature for 2 hours. Absorbance is then measured on SpectraMax Gemini fluorimeter to determine relative number of T. cruzi cells present in each plate well. The percentage inhibition of 50%, EC50, is calculated for each compound.

Test [4] relates to L. donovani HU3 strain in mouse peritoneal macrophages. Nature of the test: Proliferation of L. donovani in mouse peritoneal macrophages (SybrGreen, high-content imaging). As to conditions: Leishmania donovani, Peritoneal macrophage, 120 h; infected mouse peritoneal macrophages, 5 days; read-out: L. donavani Macrophage EC50. From the text:
The activity of a compound according to the present invention for inhibition of parasitemai can be assessed by the parasite proliferation assay. The assay measures the increase in the parasite number in the assayed plate well using a DNA intercalating dye, SYBR Green I® dye (INVITROGEN) to stain Leishmania cell nuclei. It is understood that the assays illustrate the invention without in any way limiting the scope of the invention.
L. donovani HU3 strain is propagated by infecting BALBc mice through tail vein injection with 10^7 Leishmania parasites. Infected mice are allowed to develop infection during 9-11 weeks post-infection. During this time, the parasites accumulate in the infected mouse spleens to large numbers, and the infected mice serve as the source of parasites for the in vitro measurement of compound efficacies. To assay a compound for anti-leishmanial activity, peritoneal macrophages isolated from non-infected BALBc mice are seeded into 384-well plates at density 2×10^4 macrophages per well in 25 mL of medium (RPMI1640, 10% fetal serum albumin, 10 mM HEPES, 1 mM sodium pyruvate, 1% Pen/Strep). Subsequently, the seeded plates are placed into an incubator set to maintain 37° C. temperature and atmosphere with 5% CO2. The next day, Leishmania parasites are isolated from the spleens of mice infected for 9-11 weeks and 4×10^5 isolated parasites in […] of the above media are added to each plate well. Plates are then returned into incubators and infection is allowed to proceed for 24 hours. After the infection of macrophages is completed, […] of compounds of the invention in the above medium, which also contains 5% DMSO, are added to plate wells containing infected macrophages. At the same time control compounds (miltefosine and amphotericin B) and DMSO are added to plates to serve as the positive and negative controls, respectively. After the compound addition, the plates are returned into incubator and cells infected with parasites are cultured for 5 days. At the end of cultivation, […] of 8% paraformaldehyde is added to plate wells and incubated for 15 min at room temperature. Following the incubation, the paraformaldehyde from plate wells is aspirated, and […] of PBS containing 0.2% Triton X-100 is added to wells. After 15 min incubation, the solution is aspirated from wells again, and replaced with SybrGreen Dye solution in PBS (1:125,000 dilution). Infected cells are imaged with Evotec Opera high-content microscope, and the number of parasites in well is determined by counting parasite nuclei visualized by staining with SybrGreen dye. The percentage inhibition of 50%, EC50, is calculated for each compound.
The inhibitory efficacy of the compounds of the invention against proliferation of L. donovani in mouse peritoneal macrophages is provided in Table I.

With `COCC1(C(=O)Nc2cnc3nc(-c4cc(NC(=O)c5ccco5)ccc4Cl)[nH]c3c2)CC1` [Example 42, N-[4-chloro-3-(6-{[1-(methoxymethyl)cyclopropane]amido}-1H-imidazo[4,5-b]pyridin-2-yl)phenyl]furan-2-carboxamide], the EC50 in test [1] was determined as 0.185 µM; in test [2], 1.09 µM; in test [3] it was 1.32 µM; in test [4], 1.91 µM.
Turning to `O=C(Nc1ccc(Cl)c(-c2nc3ncc(NC(=O)C4(C(F)(F)F)CCC4)cc3[nH]2)c1)c1ccc(F)o1` [Example 71, N-[4-chloro-3-(6-{[1-(trifluoromethyl)cyclobutane]amido}-1H-imidazo[4,5-b]pyridin-2-yl)phenyl]-5-fluorofuran-2-carboxamide], the half-maximal effective concentration (EC50) turned out to be 0.03 µM in test [1], 1.4 µM in test [2], 0.153 µM in test [3] and 0.263 µM in test [4].
`O=C(Nc1ccc(Cl)c(-c2nc3ncc(NC(=O)C(O)CO)cc3[nH]2)c1)c1ccco1` (centres unmarked) [Example 18, N-{4-chloro-3-[6-(2,3-dihydroxypropanamido)-1H-imidazo[4,5-b]pyridin-2-yl]phenyl}furan-2-carboxamide]: the EC50 is 1.72 µM in test [1], 8.9 µM in test [2] and 16.9 µM in test [4].
On the same counts, the results for `COC(=O)Nc1cnc2nc(-c3cc(NC(=O)c4ccco4)ccc3Cl)[nH]c2c1` [Example 9, methyl N-{2-[2-chloro-5-(furan-2-amido)phenyl]-1H-imidazo[4,5-b]pyridin-6-yl}carbamate] are 0.143 µM, 0.95 µM and 2.48 µM.
Take `O=C(CCO)Nc1cnc2nc(-c3cc(NC(=O)c4ccco4)ccc3Cl)[nH]c2c1` [Example 25, N-{4-chloro-3-[6-(3-hydroxypropanamido)-1H-imidazo[4,5-b]pyridin-2-yl]phenyl}furan-2-carboxamide]: the EC50 in test [2] is 23.2 µM; in test [3], above 20 µM; in test [4], above 50 µM.
Consider `CC(C)OC(=O)Nc1cnc2nc(-c3cc(NC(=O)c4ccco4)ccc3Cl)n(C(=O)OC(C)C)c2c1` [Example 7, propan-2-yl 2-[2-chloro-5-(furan-2-amido)phenyl]-6-{[(propan-2-yloxy)carbonyl]amino}-1H-imidazo[4,5-b]pyridine-1-carboxylate], for which the EC50 was 0.64 µM in test [2], 0.147 µM in test [3] and 1.35 µM in test [4].
Regarding `CC(C)CC(=O)Nc1cnc2nc(-c3cc(NC(=O)c4ccco4)ccc3Cl)[nH]c2c1` [Example 14, N-{4-chloro-3-[6-(3-methylbutanamido)-1H-imidazo[4,5-b]pyridin-2-yl]phenyl}furan-2-carboxamide], the values for the EC50 in test [2], in test [3] and in test [4] were 4.5 µM, 3.3 µM and 3.3 µM, respectively.
Take `O=C(Nc1ccc(Cl)c(-c2nc3ncc(NC(=O)C4CC(F)C4)cc3[nH]2)c1)c1ccco1` (centres unmarked) [Example 38, N-(4-chloro-3-{6-[(3-fluorocyclobutane)amido]-1H-imidazo[4,5-b]pyridin-2-yl}phenyl)furan-2-carboxamide]: the results for the half-maximal effective concentration (EC50) in test [2], in test [3] and in test [4] were 2.13 µM, 4.4 µM and 3.7 µM, respectively.
The corresponding values for `COc1ccc(C(=O)Nc2ccc(Cl)c(-c3nc4ncc(NC(=O)OC(C)C)cc4[nH]3)c2)o1` [Example 39, propan-2-yl N-{2-[2-chloro-5-(5-methoxyfuran-2-amido)phenyl]-1H-imidazo[4,5-b]pyridin-6-yl}carbamate] are 13.8 µM, 6.7 µM and 17.7 µM.
For the compound `CC(C)(CO)C(=O)Nc1cnc2nc(-c3cc(NC(=O)c4ccco4)ccc3Cl)[nH]c2c1` [Example 22, N-{4-chloro-3-[6-(3-hydroxy-2,2-dimethylpropanamido)-1H-imidazo[4,5-b]pyridin-2-yl]phenyl}furan-2-carboxamide], the EC50 was 0.76 µM in test [1], 20.7 µM in test [2] and above 50 µM in test [4].
Take `CN1CCC(C(=O)Nc2cnc3nc(-c4cc(NC(=O)c5ccco5)ccc4Cl)[nH]c3c2)CC1` [Example 36, N-{2-[2-chloro-5-(furan-2-amido)phenyl]-1H-imidazo[4,5-b]pyridin-6-yl}-1-methylpiperidine-4-carboxamide]: the EC50 in test [2] was above 25 µM; in test [3] it was 19 µM; in test [4], above 50 µM.
As for `CCOC(=O)Nc1cnc2nc(-c3cc(NC(=O)c4ccco4)ccc3Cl)[nH]c2c1` [Example 6, ethyl N-{2-[2-chloro-5-(furan-2-amido)phenyl]-1H-imidazo[4,5-b]pyridin-6-yl}carbamate], the EC50 was determined as 0.034 µM in test [1], 0.58 µM in test [2] and 1.42 µM in test [4].
In the case of `O=C(Nc1ccc(Cl)c(-c2nc3ncc(NC(=O)C4CCNCC4)cc3[nH]2)c1)c1ccco1` [Example 46, N-{2-[2-chloro-5-(furan-2-amido)phenyl]-1H-imidazo[4,5-b]pyridin-6-yl}piperidine-4-carboxamide], the half-maximal effective concentration (EC50) in test [2] is above 25 µM; in test [3], above 20 µM; in test [4] it was above 50 µM.
The corresponding values for `CC1(C(=O)Nc2cnc3nc(-c4cc(NC(=O)c5ccco5)ccc4Cl)[nH]c3c2)COC1` [Example 43, N-{4-chloro-3-[6-(3-methyloxetane-3-amido)-1H-imidazo[4,5-b]pyridin-2-yl]phenyl}furan-2-carboxamide] are above 25 µM, above 20 µM and 47.4 µM.
